Like-named read-outs stand apart in the source and are kept apart here.
What was measured:
FaDu cancer stem cells = assay: stemness gene expression versus chemo- and targeted therapeutics; format: cell-based; conditions: 24 hours, 2-acetylnaphtho[2,3-b]furan-4,9-dione 2 mM, sunitinib 20 mM, gemcitabine 2 mM, carboplatin 32 mM, FIGS. 4(A)-(D)
Protocol: FIGS. 4(A)-(D) depict FaDu cancer stem cells that were treated for 24 hours with DMSO and: (i) 2-acetylnaphtho[2,3-b]furan-4,9-dione (2 mM) (FIG. 4(A)), (ii) sunitinib (20 mM) (FIG. 4(B)), (iii) gemcitabine (2 mM) (FIG. 4(C)), or (iv) carboplatin (32 mM) (FIG. 4(D)).

p-Stat3 and β-catenin = assay: cancer stem cell markers in cancer xenograft models (immunofluorescence); format: in vivo, athymic nude mice; conditions: cancer xenograft tumor model, tumors harvested after first dosing; FIG. 6
Protocol: The effects of 2-acetylnaphtho[2,3-b]furan-4,9-dione on cancer stem cell markers was also examined in cancer xenograft models with and without irinotecan. Human cancer cells were subcutaneously implanted into the right flank of 5-7 weeks old female athymic nude mice. When tumor size reached 200 mm^3, animals were treated with 2-acetylnaphtho[2,3-b]furan-4,9-dione, irinotecan, or a combination of 2-acetylnaphtho[2,3-b]furan-4,9-dione and irinotecan. Tumors were harvested after first dosing.
The harvested tissues were fixed in 3.7% neutral buffered formaldehyde at 4° C. for overnight. The paraffin was embedded, cut to about 5 microns, and affixed onto positively charged slides. After being baked and de-paraffinized, the slides with tumor or control tissues were incubated in 10 mM Sodium Citrate (pH 6.0) for 10 minutes. After antigen retrieval, slides were probed with primary antibodies P-STAT3 (rabbit, Cell Signaling, 1:100), 13-Catenine (mouse, Santa Cruz, 1:400) at 4° C. overnight, and then Alexa Fluor fluorescent dyes-conjugated secondary antibodies (1:500, Invitrogen). After mounting with ProLong mounting medium with DAPI (Invitrogen), the slides were examined under a Zeiss fluorescence microscope with 20× objective, and analyzed with Zen software.

mCRC = conditions: Single Agent, panitumumab value for K-Ras WT, cited from earlier work

Molecule | expression of self-renewal / CSC genes (β-Catenin, Nanog, Smo, Sox2) (FaDu cancer stem cells) | staining for stem cell markers (p-Stat3 and β-catenin) (p-Stat3 and β-catenin) | Historical DCR (in Evaluable patients with mCRC) (mCRC) | Historical DCR (in Evaluable patients with mCRC) (mCRC; listed as panitumumab)
Nc1ccn([C@@H]2O[C@H](CO)[C@@H](O)C2(F)F)c(=O)n1 [gemcitabine] | increased CSC gene expression in certain cases | – | – | –
CCc1c2c(nc3ccc(OC(=O)N4CCC(N5CCCCC5)CC4)cc13)-c1cc3c(c(=O)n1C2)COC(=O)[C@]3(O)CC [irinotecan, reference compound] | increased CSC gene expression in certain cases | enhanced staining | – | –
O=C1[O][Pt]2([NH][C@@H]3CCCC[C@H]3[NH]2)[O]C1=O [oxaliplatin] | increased CSC gene expression in certain cases | – | – | –
N.N.O=C([O-])C1(C(=O)[O-])CCC1.[Pt+2] [carboplatin] | increased CSC gene expression in certain cases | – | – | –
panitumumab | – | – | 30-40% (K-Ras WT) | 30-40%

Source: US20180098959A1, “METHODS FOR TREATING CANCER” (BOSTON BIOMEDICAL, INC., priority 2015, published 2018)
